Structures are written as SMILES. pIC50: −log10 of the molar value.

T1 sequence (I3LUI7 19-1212): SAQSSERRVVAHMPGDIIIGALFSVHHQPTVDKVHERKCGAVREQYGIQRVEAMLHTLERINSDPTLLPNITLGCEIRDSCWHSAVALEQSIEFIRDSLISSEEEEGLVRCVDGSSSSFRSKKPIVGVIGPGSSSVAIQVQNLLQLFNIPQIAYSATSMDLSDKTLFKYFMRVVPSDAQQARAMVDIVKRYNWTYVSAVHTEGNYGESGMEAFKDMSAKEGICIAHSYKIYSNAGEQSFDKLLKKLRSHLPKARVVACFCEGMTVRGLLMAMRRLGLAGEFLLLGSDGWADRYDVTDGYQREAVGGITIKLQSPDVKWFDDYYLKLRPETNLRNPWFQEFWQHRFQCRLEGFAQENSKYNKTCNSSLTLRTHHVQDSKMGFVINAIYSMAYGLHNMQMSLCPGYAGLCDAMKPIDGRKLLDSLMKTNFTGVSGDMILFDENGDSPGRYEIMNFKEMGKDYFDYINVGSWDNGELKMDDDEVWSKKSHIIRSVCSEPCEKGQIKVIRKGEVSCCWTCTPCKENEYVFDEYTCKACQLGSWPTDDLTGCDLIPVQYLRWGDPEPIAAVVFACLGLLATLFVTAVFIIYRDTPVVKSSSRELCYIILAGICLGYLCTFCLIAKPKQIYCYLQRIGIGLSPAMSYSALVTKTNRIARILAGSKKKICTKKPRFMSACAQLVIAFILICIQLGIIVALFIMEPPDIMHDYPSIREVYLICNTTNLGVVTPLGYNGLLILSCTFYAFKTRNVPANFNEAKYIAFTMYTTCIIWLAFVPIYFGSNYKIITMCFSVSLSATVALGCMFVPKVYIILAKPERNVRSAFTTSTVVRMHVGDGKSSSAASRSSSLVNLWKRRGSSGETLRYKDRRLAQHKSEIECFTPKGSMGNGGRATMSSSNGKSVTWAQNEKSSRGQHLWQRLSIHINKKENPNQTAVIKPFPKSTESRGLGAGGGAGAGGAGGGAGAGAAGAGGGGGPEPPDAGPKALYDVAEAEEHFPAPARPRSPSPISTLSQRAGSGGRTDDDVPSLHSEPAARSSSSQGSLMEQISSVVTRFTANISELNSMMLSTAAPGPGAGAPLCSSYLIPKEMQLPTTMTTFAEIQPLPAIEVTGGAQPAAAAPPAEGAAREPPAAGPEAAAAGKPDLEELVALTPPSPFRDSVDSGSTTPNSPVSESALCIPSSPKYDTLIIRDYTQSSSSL

One experiment has as its target T1, mGluR5 receptor (Sus scrofa, UniProt I3LUI7).
T1 construct: 450 μg of protein from brain homogenate with 5 nM ^3[H]-MPEP; from tissue; host or cells: pig brain halves without medulla, cerebellum and pons
In words: [3H]-MPEP mGluR5 receptor binding assay (pig brain homogenate). Conditions: 5 nM [3H]-MPEP, read-out: IC50 mGluR5 Receptor (pig) [^3H]-MPEP Bond. A digest of the protocol:
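Compounds at 10 μM competed with 5 nM [3H]-MPEP for binding to pig brain membranes (450 μg protein) for 60 min at room temperature in pH 8.0 Hepes buffer. Bound radioactivity was collected on glass-fibre filters and read by β-counting, with 10 μM unlabelled MPEP giving non-specific binding.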
For the compound `O=C(c1ccno1)N(Cc1cc(-c2ccc3ncnc(NC4CC4)c3c2)ccc1F)C1CC1` [Example 457, N-cyclopropyl-N-(5-(4-(cyclopropylamino)quinazolin-6-yl)-2-fluorobenzyl)isoxazole-5-carboxamide], the pIC50 is 6.68.

Still in this experiment, the particulars now being: 10 μM compound, 5 nM [3H]-MPEP.
Turning to `O=S(=O)(c1c(F)c(F)c(F)c(F)c1F)N(Cc1cc(-c2ccc3ncnc(NC4CC4)c3c2)ccc1F)C1CC1` [Example 399, N-cyclopropyl-N-(5-(4-(cyclopropylamino)quinazolin-6-yl)-2-fluorobenzyl)-2,3,4,5,6-pentafluorobenzole sulfonamide], the “% Inhibition of mGluR5 Receptor (pig) [^3H]-MPEP Bond at 10 μM” value is on record as 39%.

Staying with this experiment, now noted: 10 μM compound, 5 nM [3H]-MPEP, read-out: % Inhibition of mGluR5 Receptor (pig) [^3H]-MPEP Bond at 10 μM.
`O=C(c1ccc(C(F)(F)F)cc1F)N(Cc1cc(-c2ccc3ncnc(NC4CC4)c3c2)ccc1F)C1CC1` [Example 397, N-cyclopropyl-N-(5-(4-(cyclopropylamino)quinazolin-6-yl)-2-fluorobenzyl)-2-fluoro-4-(trifluoromethyl)benzamide]: the inhibition at 10 µM amounted to 87%.

Turning to `CN(C)CC(=O)N(Cc1cc(-c2ccc3ncnc(NC4CC4)c3c2)ccc1F)C1CC1` [Example 398, N-cyclopropyl-N-(5-(4-(cyclopropylamino)quinazolin-6-yl)-2-fluorobenzyl)-2-(dimethylamino)acetamide], the inhibition at 10 µM was 63%.

On to `CC(C)(C)C(=O)N(Cc1cccc(-c2ccc3ncnc(NCCc4ccccc4)c3c2)c1)C1CC1` [Example 401, N-cyclopropyl-N-(3-(4-(phenethylamino)quinazolin-6-yl)benzyl)pivalamide], for which the inhibition at 10 µM was found to be 36%.

Consider `Cc1cccc(CNc2ncnc3ccc(-c4cccc(CN(C(=O)c5cc(C)nn5C)C5CC5)c4)cc23)c1` [Example 402, N-cyclopropyl-1,3-dimethyl-N-(3-(4-(3-methylbenzylamino)quinazolin-6-yl)benzyl)-1H-pyrazole-5-carboxamide], for which the inhibition at 10 µM amounted to 34%.

Regarding `Cc1cccc(CNc2ncnc3ccc(-c4cccc(CN(C(=O)c5ccncc5)C5CC5)c4)cc23)c1` [Example 403, N-cyclopropyl-N-(3-(4-(3-methylbenzylamino)quinazolin-6-yl)benzyl)isonicotinamide], the inhibition at 10 µM turned out to be 40%.

In the case of `O=C(c1cccc(C(F)(F)F)c1)N(Cc1cc(-c2ccc3ncnc(NC4CC4)c3c2)ccc1F)C1CC1` [Example 405, N-cyclopropyl-N-(5-(4-(cyclopropylamino)quinazolin-6-yl)-2-fluorobenzyl)-3-(trifluoromethyl)benzamide], the inhibition at 10 µM was determined as 77%.

As to `O=C(Cc1ccccc1)N(Cc1cc(-c2ccc3ncnc(NC4CC4)c3c2)ccc1F)C1CC1` [Example 406, N-cyclopropyl-N-(5-(4-(cyclopropylamino)quinazolin-6-yl)-2-fluorobenzyl)-2-phenylacetamide], the inhibition at 10 µM came out at 95%.

With `O=S(=O)(c1cccs1)N(Cc1cc(-c2ccc3ncnc(NC4CC4)c3c2)ccc1F)C1CC1` [Example 407, N-cyclopropyl-N-(5-(4-(cyclopropylamino)quinazolin-6-yl)-2-fluorobenzyl)thiophene-2-sulfonamide], the inhibition at 10 µM was 92%.

For `CCCCC(=O)N(Cc1cccc(-c2ccc3ncnc(NCCc4ccccc4)c3c2)c1)C1CC1` [Example 409, N-cyclopropyl-N-(3-(4-(phenethylamino)quinazolin-6-yl)benzyl)pentanamide], the inhibition at 10 µM is 32%.

In the case of `Cc1cccc(CNc2ncnc3ccc(-c4cccc(CN(C(=O)c5cccnc5)C5CC5)c4)cc23)c1` [Example 411, N-cyclopropyl-N-(3-(4-(3-methylbenzylamino)quinazolin-6-yl)benzyl)nicotinamide], the inhibition at 10 µM worked out at 34%.

In the case of `O=C(c1ccccc1C(F)(F)F)N(Cc1cc(-c2ccc3ncnc(NC4CC4)c3c2)ccc1F)C1CC1` [Example 413, N-cyclopropyl-N-(5-(4-(cyclopropylamino)quinazolin-6-yl)-2-fluorobenzyl)-2-(trifluoromethyl)benzamide], the inhibition at 10 µM came to 89%.

For the compound `O=C(CCc1ccccc1)N(Cc1cc(-c2ccc3ncnc(NC4CC4)c3c2)ccc1F)C1CC1` [Example 414, N-cyclopropyl-N-(5-(4-(cyclopropylamino)quinazolin-6-yl)-2-fluorobenzyl)-3-phenylpropanamide], the inhibition at 10 µM was 93%.

Consider `O=S(=O)(c1cccc2cccnc12)N(Cc1cc(-c2ccc3ncnc(NC4CC4)c3c2)ccc1F)C1CC1` [Example 415, N-cyclopropyl-N-(5-(4-(cyclopropylamino)quinazolin-6-yl)-2-fluorobenzyl)quinoline-8-sulfonamide], for which the inhibition at 10 µM came to 53%.

For the compound `CN(C)CC(=O)N(Cc1cccc(-c2ccc3ncnc(NCCc4ccccc4)c3c2)c1)C1CC1` [Example 417, N-cyclopropyl-2-(dimethylamino)-N-(3-(4-(phenethylamino)quinazolin-6-yl)benzyl)acetamide], the inhibition at 10 µM was found to be 60%.

In the case of `CC(=O)N(Cc1cccc(-c2ccc3ncnc(NCc4cccc(C)c4)c3c2)c1)C1CC1` [Example 419, N-cyclopropyl-N-(3-(4-(3-methylbenzylamino)quinazolin-6-yl)benzyl)acetamide], the inhibition at 10 µM was 76%.

Take `CN(c1ncnc2ccc(-c3ccc(F)c(CN(C(=O)c4ccco4)C4CC4)c3)cc12)C1CC1` [Example 420, N-cyclopropyl-N-(5-(4-(cyclopropyl(methyl)amino)quinazolin-6-yl)-2-fluorobenzyl)furan-2-carboxamide]: the inhibition at 10 µM amounted to 94%.

In the case of `O=C(c1cc(Cl)cc(Cl)c1)N(Cc1cc(-c2ccc3ncnc(NC4CC4)c3c2)ccc1F)C1CC1` [Example 421, 3,5-dichloro-N-cyclopropyl-N-(5-(4-(cyclopropylamino)quinazolin-6-yl)-2-fluorobenzyl)benzamide], the inhibition at 10 µM was 81%.

With `CN(c1ncnc2ccc(-c3ccc(F)c(CN(C(=O)c4cccs4)C4CC4)c3)cc12)C1CC1` [Example 427, N-cyclopropyl-N-(5-(4-(cyclopropyl(methyl)amino)quinazolin-6-yl)-2-fluorobenzyl)thiophene-2-carboxamide], the inhibition at 10 µM was found to be 95%.

Turning to `O=C(c1ccccn1)N(Cc1cc(-c2ccc3ncnc(NC4CC4)c3c2)ccc1F)C1CC1` [Example 428, N-cyclopropyl-N-(5-(4-(cyclopropylamino)quinazolin-6-yl)-2-fluorobenzyl)picolinamide], the inhibition at 10 µM was 96%.

`CC(C)S(=O)(=O)N(Cc1cc(-c2ccc3ncnc(NC4CC4)c3c2)ccc1F)C1CC1` [Example 429, N-cyclopropyl-N-(5-(4-(cyclopropylamino)quinazolin-6-yl)-2-fluorobenzyl)propane-2-sulfonamide]: the inhibition at 10 µM was 92%.

With `COCC(=O)N(Cc1cccc(-c2ccc3ncnc(NCc4cccc(C)c4)c3c2)c1)C1CC1` [Example 434, N-cyclopropyl-2-methoxy-N-(3-(4-(3-methylbenzylamino)quinazolin-6-yl)benzyl)acetamide], the inhibition at 10 µM was found to be 62%.

Take `Cc1cc(C(=O)N(Cc2cc(-c3ccc4ncnc(NC5CC5)c4c3)ccc2F)C2CC2)n(C)n1` [Example 435, N-cyclopropyl-N-(5-(4-(cyclopropylamino)quinazolin-6-yl)-2-fluorobenzyl)-1,3-dimethyl-1H-pyrazole-5-carboxamide]: the inhibition at 10 µM came out at 87%.

For `O=C(c1ccncc1)N(Cc1cc(-c2ccc3ncnc(NC4CC4)c3c2)ccc1F)C1CC1` [Example 436, N-cyclopropyl-N-(5-(4-(cyclopropylamino)quinazolin-6-yl)-2-fluorobenzyl)isonicotinamide], the inhibition at 10 µM was determined as 98%.

Take `O=S(=O)(Cc1ccccc1)N(Cc1cc(-c2ccc3ncnc(NC4CC4)c3c2)ccc1F)C1CC1` [Example 437, N-cyclopropyl-N-(5-(4-(cyclopropylamino)quinazolin-6-yl)-2-fluorobenzyl)-1-phenylmethane sulfonamide]: the inhibition at 10 µM turned out to be 90%.

As for `CS(=O)(=O)N(Cc1cccc(-c2ccc3ncnc(NCCc4ccccc4)c3c2)c1)C1CC1` [Example 440, N-cyclopropyl-N-(3-(4-(phenethylamino)quinazolin-6-yl)benzyl)methane sulfonamide], the inhibition at 10 µM was found to be 73%.

Regarding `Cc1nc(NC2CC2)c2cc(-c3cccc(CN(C(=O)c4c(F)c(F)c(F)c(F)c4F)C4CC4)c3)ccc2n1` [Example 447, N-cyclopropyl-N-(3-(4-(cyclopropylamino)-2-methylquinazolin-6-yl)benzyl)-2,3,4,5,6-pentafluorobenzamide], the inhibition at 10 µM is 85%.

Turning to `O=C(C1CCCCC1)N(Cc1cc(-c2ccc3ncnc(NC4CC4)c3c2)ccc1F)C1CC1` [Example 452, N-cyclopropyl-N-(5-(4-(cyclopropylamino)quinazolin-6-yl)-2-fluorobenzyl)cyclohexane carboxamide], the inhibition at 10 µM is 71%.

As to `Cc1nc(NC2CC2)c2cc(-c3cccc(CN(C(=O)c4ccc(C(F)(F)F)cc4F)C4CC4)c3)ccc2n1` [Example 454, N-cyclopropyl-N-(3-(4-(cyclopropylamino)-2-methylquinazolin-6-yl)benzyl)-2-fluoro-4-(trifluoromethyl)benzamide], the inhibition at 10 µM was 34%.

In the case of `Cc1nc(NC2CC2)c2cc(-c3cccc(CN(C(=O)c4cccc(C(F)(F)F)c4)C4CC4)c3)ccc2n1` [Example 462, N-cyclopropyl-N-(3-(4-(cyclopropylamino)-2-methylquinazolin-6-yl)benzyl)-3-(trifluoromethyl)benzamide], the inhibition at 10 µM turned out to be 48%.

Take `Cc1nc(NC2CC2)c2cc(-c3ccc(F)c(CN(C(=O)c4ccccc4C(F)(F)F)C4CC4)c3)ccc2n1` [Example 470, N-cyclopropyl-N-(5-(4-(cyclopropylamino)-2-methylquinazolin-6-yl)-2-fluorobenzyl)-2-(trifluoromethyl)benzamide]: the inhibition at 10 µM was determined as 93%.

(Values after US20090069320A1, “Substituted 4-Amino-Quinazoline Compounds with Metabotropic Glutamate Receptor Regulating Activity and Uses Thereof” (Gruenenthal GmbH, priority 2006, published 2009).)
